Experimental data: patent publication US12252701B2, “Chimeric antigen receptor T cell therapy” (KITE PHARMA, INC., priority 2020, dated 2025)
Like-named read-outs stand apart in the source and are kept apart here.

Assays:
[1] = tested on: CD19 CAR T cells; assay: CAR T cell cytokine production (Luminex) under CD19 K562, KIP-1 or CD2/3/28 stimulation; conditions: 72 h
Description: Cryopreserved healthy donor CLP CD19 CAR T cells were thawed and rested overnight in 100 U/ml of IL-2 at 1×10^6/ml. 2.5×10^5 CD19 CART cells were plated in 96-well RB plate wells in a total volume of 200 μl of R10 culture media. […] CD19 CART cell cytokine production was allowed to proceed through 72 hours in the presence of stimulator and JAKi or steroid. Following 72 h of culture, 100 μl of the cell supernatant of each well were harvested and stored at −80° C. for later Luminex/Bioplex-200 cytokine analysis. Briefly, stored supernatants were thawed and 50 μl of the sample was assayed for cytokines using a ThermoFisher Procarta Plex 19-plex human cytokine assay kit (ThermoFisher, Carlsbad, CA) according to kit manufacturer's instructions and detected using a BioRad Bioplex-200 instrument. The data points generated from the luminex cytokine assay were transferred to a GraphPad PRISM IC50 dose-response curve analysis to generate IC50 or potency values for the JAKi's and steroids tested.

[2] = tested on: phospho-STAT panel (pSTAT3/4/5), CD3+ T cells; assay: phospho-STAT induction by IL-6, MesoScale Discovery phospho-STAT panel; type: cell-based, human; conditions: CD3+ T cells; for pSTAT3: MSD signal (No stim. 689, IL-6 alone 33641); for pSTAT4: MSD signal (No stim. 1964, IL-6 alone 15405); for pSTAT5: MSD signal (No stim. 9210, IL-6 alone 17743)
Description: CD19 CAR-T, PBMC or CD3+ T cells (AllCells) were thawed and rested 0/N at 37° C. in R10 media. Cells were seeded at 700,000 cells/well and were either untreated or treated with 100 ng/ml IL6+drug at indicated concentrations for 20 minutes at 37° C. The cells were then washed with cold PBS and followed by 60 μl of Tris lysis buffer (provided by MSD) for 30 minutes on ice. Lysates were collected by spin down for 10 minutes at >10,000 rpm. 25 μl/well per condition was used for MesoScale Discovery (MSD) assay using the phospho-STAT panel (pSTAT3/4/5) from MesoScale Discovery following the manufacturer's protocol. pSTAT panel plates were blocked with 150 μl of blocker A solution for 1 hr at RT with shaking. Plates were washed three times with 1× Tris wash buffer. 25 μl of lysate samples were added per well, incubated 2 hr at room temperature or at 4° C. overnight. Plates were washed 3 times with 1× tris wash buffer and then 25 μl of detection antibody solution were added to each well and incubated for 1 hr at room temperature with shaking. Plates were washed and 1× read buffer added to each well and plates were read on the MSD instrument.

[3] = plasma protein binding, reported; cited from earlier work
[4] = in vitro; conditions: human, CAR-T cells
[5] = Clinical pharmacokinetic data converted to in vitro concentrations; conditions: human, in vivo
Text: Given the different potencies of the JAK inhibitors and different pharmacokinetic properties for each drug, it was sought to test each drug at a relevant range of physiological concentrations based on clinical dosing and reported pharmacokinetic data from repeat dose studies. Reported Cmax values in patient sera were converted to in vitro concentrations and adjusted for reported plasma protein binding.

[6] = tested on: CAR-T cells; assay: CAR-T cell expansion assay (KIP-1 or CD3/CD28 stimulation); conditions: CD3/CD28
[7] = tested on: NALM6.GFP.LUC.CD19 target cells
[8] = 100 ng/ml IL-6 + drug 10 uM, 20 min

Question: With C[C@H]1C[C@@H]2[C@H]([C@@H](O)C[C@@]3(C)[C@H]2CC[C@]3(O)C(=O)CO)[C@@]2(C)C=CC(=O)C=C12 [Methlyprednisolone] as the compound, how does the “Suppression of cytokine production, IL-6 (IC50)” value ([1]; CD3/CD28 stimulation) read?
Answer: Its value is “Suppress”.

Question: And the “Suppression of cytokine production, MCP-1, % inh.” value ([1]; CD3/CD28 stimulation)?
Answer: Its value is >80% inh.

Question: And the “Suppression of cytokine production, TNFa, % inh.” value ([1]; CD3/CD28 stimulation)?
Answer: The value was >50% inh.

Question: And the “Suppression of cytokine production, IL-6 (IC50)” value ([1]; K562-CD19 stimulation)?
Answer: Its value is “Suppress”.

Question: What about the “Suppression of cytokine production, MCP-1 (IC50)” value ([1]; K562-CD19 stimulation) of the same compound?
Answer: The value was “Suppress”.

Question: What about the “Suppression of cytokine production, MIG (IC50)” value ([1]; K562-CD19 stimulation) of the same compound?
Answer: The value was “Suppress”.

Question: And the “Suppression of cytokine production, TNFa (IC50)” value ([1]; K562-CD19 stimulation)?
Answer: Its value is “Suppress”.

Question: And the “Suppression of cytokine production, IL-6, % inh.” value ([1]; KIP-1 stimulation)?
Answer: The value was 66% inh.

Question: And the “Suppression of cytokine production, IL-10, % inh.” value ([1]; KIP-1 stimulation)?
Answer: The value was 50% inh.

Question: What about the “Suppression of cytokine production, MCP-1, % inh.” value ([1]; KIP-1 stimulation) of the same compound?
Answer: Its value is 66% inh.

Question: What about the “Suppression of cytokine production, MIG, % inh.” value ([1]; KIP-1 stimulation) of the same compound?
Answer: The value was 50% inh.

Question: What about the “Suppression of cytokine production, TNFa, % inh.” value ([1]; KIP-1 stimulation) of the same compound?
Answer: Its value is 75% inh.

Question: And the IC50 ([1]; read-out: Suppression of cytokine production, GMCSF (IC50), CD3/CD28 stimulation)?
Answer: The IC50 was > 10 µM.

Question: And the IC50 ([1]; read-out: Suppression of cytokine production, GMCSF (IC50), KIP-1 stimulation)?
Answer: Its IC50 is > 10 µM.

Question: What about the IC50 ([1]; read-out: Suppression of cytokine production, GzB (IC50), CD3/CD28 stimulation) of the same compound?
Answer: Its IC50 is > 10 µM.

Question: And the IC50 ([1]; read-out: Suppression of cytokine production, GzB (IC50), KIP-1 stimulation)?
Answer: The IC50 was > 10 µM.

Question: And the IC50 ([1]; read-out: Suppression of cytokine production, IFNg (IC50), CD3/CD28 stimulation)?
Answer: Its IC50 is > 10 µM.

Question: And the IC50 ([1]; read-out: Suppression of cytokine production, IFNg (IC50), KIP-1 stimulation)?
Answer: The IC50 was > 10 µM.

Question: And the IC50 ([1]; read-out: Suppression of cytokine production, IL-2Ra (IC50), CD3/CD28 stimulation)?
Answer: Its IC50 is > 10 µM.

Question: And the IC50 ([1]; read-out: Suppression of cytokine production, IL-2Ra (IC50), K562-CD19 stimulation)?
Answer: The IC50 was > 10 µM.

Question: And the IC50 ([1]; read-out: Suppression of cytokine production, IL-2Ra (IC50), KIP-1 stimulation)?
Answer: The IC50 was > 10 µM.

Question: And the IC50 ([1]; read-out: Suppression of cytokine production, IL-8 (IC50), CD3/CD28 stimulation)?
Answer: The IC50 was > 10 µM.

Question: And the IC50 ([1]; read-out: Suppression of cytokine production, IL-8 (IC50), K562-CD19 stimulation)?
Answer: Its IC50 is > 10 µM.

Question: And the IC50 ([1]; read-out: Suppression of cytokine production, IL-8 (IC50), KIP-1 stimulation)?
Answer: Its IC50 is > 10 µM.

Question: And the IC50 ([1]; read-out: Suppression of cytokine production, IL-10 (IC50), CD3/CD28 stimulation)?
Answer: Its IC50 is > 10 µM.

Question: And the IC50 ([1]; read-out: Suppression of cytokine production, MIG (IC50), CD3/CD28 stimulation)?
Answer: The IC50 was > 10 µM.

Question: What about the IC50 ([1]; read-out: Suppression of cytokine production, MIP-1a (IC50), CD3/CD28 stimulation) of the same compound?
Answer: The IC50 was > 10 µM.

Question: And the IC50 ([1]; read-out: Suppression of cytokine production, MIP-1a (IC50), KIP-1 stimulation)?
Answer: The IC50 was > 10 µM.

Question: What about the IC50 ([1]; read-out: Suppression of cytokine production, MIP-1b (IC50), CD3/CD28 stimulation) of the same compound?
Answer: The IC50 was > 10 µM.

Question: And the IC50 ([1]; read-out: Suppression of cytokine production, MIP-1b (IC50), KIP-1 stimulation)?
Answer: Its IC50 is > 10 µM.

Question: And the IC50 ([1]; read-out: Suppression of cytokine production, Perforin (IC50), CD3/CD28 stimulation)?
Answer: Its IC50 is > 10 µM.

Question: And the IC50 ([1]; read-out: Suppression of cytokine production, Perforin (IC50), KIP-1 stimulation)?
Answer: The IC50 was > 10 µM.

Question: Which pSTAT3 [2, 8] does the source give for C[C@H]1C[C@@H]2[C@H]([C@@H](O)C[C@@]3(C)[C@H]2CC[C@]3(O)C(=O)CO)[C@@]2(C)C=CC(=O)C=C12 [methylprednisolone] here?
Answer: The pSTAT3 was 25867.

Question: And the pSTAT4 [2, 8]?
Answer: Its pSTAT4 is 11225.

Question: And the pSTAT5 [2, 8]?
Answer: Its pSTAT5 is 14781.

Question: What about the pSTAT3 ([2]; IL-6 + drug 0.125 uM) of the same compound?
Answer: The pSTAT3 was 30520.

Question: And the pSTAT4 ([2]; IL-6 + drug 0.125 uM)?
Answer: The pSTAT4 was 14740.

Question: And the pSTAT5 ([2]; IL-6 + drug 0.125 uM)?
Answer: The pSTAT5 was 18739.

Question: What about the pSTAT3 ([2]; IL-6 + drug 0.5 uM) of the same compound?
Answer: Its pSTAT3 is 30901.

Question: And the pSTAT4 ([2]; IL-6 + drug 0.5 uM)?
Answer: Its pSTAT4 is 14903.

Question: What about the pSTAT5 ([2]; IL-6 + drug 0.5 uM) of the same compound?
Answer: Its pSTAT5 is 20208.

Question: What about the pSTAT3 ([2]; IL-6 + drug 1 uM) of the same compound?
Answer: The pSTAT3 was 28287.

Question: And the pSTAT4 ([2]; IL-6 + drug 1 uM)?
Answer: The pSTAT4 was 14989.

Question: What about the pSTAT5 ([2]; IL-6 + drug 1 uM) of the same compound?
Answer: The pSTAT5 was 18668.

Question: And the pSTAT3 ([2]; IL-6 + drug 5 uM)?
Answer: The pSTAT3 was 25433.

Question: What about the pSTAT4 ([2]; IL-6 + drug 5 uM) of the same compound?
Answer: The pSTAT4 was 11282.

Question: And the pSTAT5 ([2]; IL-6 + drug 5 uM)?
Answer: The pSTAT5 was 15142.

Question: What about the Protein binding [3] of the same compound?
Answer: Its Protein binding is 78%.

Question: What about the viability at 0 day, 1000 nM [4] of the same compound?
Answer: The viability at 0 day, 1000 nM was 75%.

Question: What about the viability at 0 day, 5000 nM [4] of the same compound?
Answer: The viability at 0 day, 5000 nM was 75%.

Question: And the viability at 4 day, 1000 nM [4]?
Answer: The viability at 4 day, 1000 nM was 58.1%.

Question: What about the viability at 4 day, 5000 nM [4] of the same compound?
Answer: Its viability at 4 day, 5000 nM is 49.4%.

Question: And the viability at 8 day, 1000 nM [4]?
Answer: The viability at 8 day, 1000 nM was 69.1%.

Question: What about the viability at 8 day, 5000 nM [4] of the same compound?
Answer: Its viability at 8 day, 5000 nM is 66%.

Question: What about the viability at 12 day, 1000 nM [4] of the same compound?
Answer: The viability at 12 day, 1000 nM was 76.3%.

Question: And the viability at 12 day, 5000 nM [4]?
Answer: Its viability at 12 day, 5000 nM is 71.9%.

Question: And the “PPB adj. in Vitro concentration (free)” value [5]?
Answer: Its value is 670 nM.

Question: What about the “PPB adj. in Vitro concentration (total)” value [5] of the same compound?
Answer: The value was 2.56 µM.

Question: What about the “clinically relevant dose level (in vitro concentration)” value [5] of the same compound?
Answer: Its value is ~2.5 µM.

Question: What about the Cmax ([5]; 100 mg) of the same compound?
Answer: The Cmax was 960 ng/mL.

Question: What about the “Cmax (ng/ml) (free)” value ([5]; 100 mg) of the same compound?
Answer: The value was 251 ng/mL.

Question: What about the “% viability” value ([6]; dose 1000 nM, day 4) of the same compound?
Answer: The value was 44.3%.

Question: And the “% viability” value ([6]; dose 1000 nM, day 12)?
Answer: Its value is 62.6%.

Question: And the “% viability” value ([6]; dose 5000 nM, day 4)?
Answer: The value was 46.6%.

Question: What about the “% viability” value ([6]; dose 5000 nM, day 8) of the same compound?
Answer: Its value is 59.1%.

Question: And the “% viability” value ([6]; dose 5000 nM, day 12)?
Answer: Its value is 58.9%.

Question: And the “impact on CAR-T serial killing (percent cytotoxicity)” value [7]?
Answer: The value was “differential impacts”.
